Experimental data from US8604061B2, “2-aminooxazolines as TAAR1 ligands” (Hoffmann-La Roche Inc., priority 2007, dated 2013).

Each molecule was assayed against TAAR1 (Mus musculus, UniProt Q923Y8) (assay: TAAR1 radioligand binding, membranes of stably transfected HEK293 cells (mouse)). Conditions: not given.
Method: For the construction of expression plasmids the coding sequences of human, rat and mouse TAAR 1 were amplified from genomic DNA essentially as described by Lindemann et al.. The Expand High Fidelity PCR System (Roche Diagnostics) was used with 1.5 mM Mg^2+ and purified PCR products were cloned into pCR2.1-TOPO cloning vector (Invitrogen) following the instructions of the manufacturer. PCR products were subcloned into the pIRESneo2 vector (BD Clontech, Palo Alto, Calif.), and expression vectors were sequence verified before introduction in cell lines.
HEK293 cells (ATCC #CRL-1573) were cultured essentially as described Lindemann et al. (2005). For the generation of stably transfected cell lines HEK293 cells were transfected with the pIRESneo2 expression plasmids containing the TAAR coding sequences (described above) with Lipofectamine 2000 (Invitrogen) according to the instructions of the manufacturer, and 24 hrs post transfection the culture medium was supplemented with 1 mg/ml G418 (Sigma, Buchs, Switzerland). After a culture period of about 10 d clones were isolated, expanded and tested for responsiveness to trace amines (all compounds purchased from Sigma) with the cAMP Biotrak Enzyme immunoassay (EIA) System (Amersham) following the non-acetylation EIA procedure provided by the manufacturer.
Cells at confluence were rinsed with ice-cold phosphate buffered saline without Ca^2+ and Mg^2+ containing 10 mM EDTA and pelleted by centrifugation at 1000 rpm for 5 min at 4° C. The pellet was then washed twice with ice-cold phosphate buffered saline and cell pellet was frozen immediately by immersion in liquid nitrogen and stored until use at −80° C. Cell pellet was then suspended in 20 ml HEPES-NaOH (20 mM), pH 7.4 containing 10 mM EDTA, and homogenized with a Polytron (PT 3000, Kinematica) at 10,000 rpm for 10 s. The homogenate was centrifuged at 48,000×g for 30 min at 4° C. and the pellet resuspended in 20 ml HEPES-NaOH (20 mM), pH 7.4 containing 0.1 mM EDTA (buffer A), and homogenized with a Polytron at 10,000 rpm for 10 s. The homogenate was then centrifuged at 48,000×g for 30 min at 4° C. and the pellet resuspended in 20 ml buffer A, and homogenized with a Polytron at 10,000 rpm for 10 s. Protein concentration was determined by the method of Pierce (Rockford, Ill.). The homogenate was then centrifuged at 48,000×g for 10 min at 4° C., resuspended in HEPES-NaOH (20 mM), pH 7.0 including MgCl2 (10 mM) and […] homogenized with a Polytron at 10,000 rpm for 10 s.
Binding assay was performed at 4° C. in a final volume of 1 ml, and with an incubation time of 30 min. […] Non-specific binding was defined as the amount of [^3H]-rac-2-(1,2,3,4-tetrahydro-1-naphthyl)-2-imidazoline bound in the presence of the appropriate unlabelled ligand (10 μM). Competing ligands were tested in a wide range of concentrations (10 pM-30 μM). […] Each experiment was performed in duplicate. All incubations were terminated by rapid filtration through UniFilter-96 plates (Packard Instrument Company) and glass filter GF/C, pre-soaked for at least 2 h in polyethylenimine 0.3%, and using a Filtermate 96 Cell Harvester (Packard Instrument Company). The tubes and filters were then washed 3 times with 1 ml aliquots of cold buffer B. Filters were not dried and soaked in Ultima gold (45 μl/well, Packard Instrument Company) and bound radioactivity was counted by a TopCount Microplate Scintillation Counter (Packard Instrument Company).
With `COc1ccc(C2COC(N)=N2)c(C(F)(F)F)c1` (racemic) [Example 229, (RS)-4-(4-Methoxy-2-trifluoromethyl-phenyl)-4,5-dihydro-oxazol-2-ylamine] the Ki was < 3 µM. In the case of `Cc1cc(F)ccc1C1COC(N)=N1` (racemic) [Example 337, (RS)-4-(4-Fluoro-2-methyl-phenyl)-4,5-dihydro-oxazol-2-ylamine], the Ki is reported as 0.0034 µM. `NC1=NC(c2ccc(-c3ccccc3)cc2)CO1` (racemic) [Example 10, (RS)-4-Biphenyl-4-yl-4,5-dihydro-oxazol-2-ylamine] was tested, and the Ki was 0.0025 µM. For `Cc1ccc(F)cc1C1COC(N)=N1` (racemic) [Example 250, (RS)-4-(5-Fluoro-2-methyl-phenyl)-4,5-dihydro-oxazol-2-ylamine], the Ki was 0.0022 µM. Work on `NC1=NC(c2ccc(F)cc2F)CO1` (racemic) [Example 7, (RS)-4-(2,4-Difluoro-phenyl)-4,5-dihydro-oxazol-2-ylamine] yielded a Ki of 0.0083 µM. With `Cc1ccccc1[C@H]1COC(N)=N1` [39a (S), (S)-4-o-Tolyl-4,5-dihydro-oxazol-2-ylamine] the Ki was 0.0025 µM. Work on `NC1=NC(c2ccc(F)c(F)c2F)CO1` (racemic) [Example 17, (RS)-4-(2,3,4-Trifluoro-phenyl)-4,5-dihydro-oxazol-2-ylamine] yielded a Ki of 0.0057 µM. `NC1=NC(c2ccc(-c3ccc(Cl)cc3)cc2)CO1` (racemic) [Example 31, (RS)-4-(4′-Chloro-biphenyl-4-yl)-4,5-dihydro-oxazol-2-ylamine] was tested, and the Ki was 0.0022 µM.

Same assay, conditions: mouse/rat; cell not marked 'rat'; radioligand [3H]-rac-2-(1,2,3,4-tetrahydro-1-naphthyl)-2-imidazoline, 4° C.; read-out: Ki (μM) mouse/rat
Work on `Cc1ccc(F)c(CC2COC(N)=N2)c1` (racemic) [Example 73, (RS)-4-(2-Fluoro-5-methyl-benzyl)-4,5-dihydro-oxazol-2-ylamine] yielded a Ki of 0.0089 µM. `NC1=N[C@@H](CCc2ccc(F)cc2F)CO1` [Example 88] showed a Ki of 0.001 µM. `NC1=N[C@@H](c2ccccc2Cl)CO1` [Example 4, (S)-4-(2-Chloro-phenyl)-4,5-dihydro-oxazol-2-ylamine] was tested, and the Ki was 0.0012 µM. `NC1=N[C@@H](CCc2ccccc2Cl)CO1` [Example 267, (S)-4-[2-(2-Chloro-phenyl)-ethyl]-4,5-dihydro-oxazol-2-ylamine] gave a Ki of 0.0011 µM. `NC1=N[C@@H](CCc2cccc(F)c2)CO1` [Example 112, (S)-4-[2-(3-Fluoro-phenyl)-ethyl]-4,5-dihydro-oxazol-2-ylamine] was tested, and the Ki was 0.0012 µM. Molecule `C[C@]1(c2ccccc2Cl)COC(N)=N1` [Example 180, (S)-4-(2-Chloro-phenyl)-4-methyl-4,5-dihydro-oxazol-2-ylamine] has a Ki of 0.0088 µM. `C[C@]1(c2ccc(Cl)c(F)c2)COC(N)=N1` [Example 236, (S)-4-(4-Chloro-3-fluoro-phenyl)-4-methyl-4,5-dihydro-oxazol-2-ylamine] showed a Ki of 0.002 µM. `NC1=N[C@@H](Cc2ccccc2Cl)CO1` [Example 60, (S)-4-(2-Chloro-benzyl)-4,5-dihydro-oxazol-2-ylamine] gave a Ki of 0.0047 µM. Work on `Cc1cc([C@@]2(C)COC(N)=N2)c(F)cc1Cl` [Example 308, (S)-4-(4-Chloro-2-fluoro-5-methyl-phenyl)-4-methyl-4,5-dihydro-oxazol-2-ylamine] yielded a Ki of 0.0009 µM. `NC1=N[C@@H](c2cccc(Br)c2)CO1` [Example 198, (+)-(S)-4-(3-Bromo-phenyl)-4,5-dihydro-oxazol-2-ylamine] gave a Ki of 0.002 µM. For `NC1=N[C@@H](CCc2cccc(OC(F)(F)C(F)F)c2)CO1` [Example 141, (S)-4-{2-[3-(1,1,2,2-Tetrafluoro-ethoxy)-phenyl]-ethyl}-4,5-dihydro-oxazol-2-ylamine], the Ki was 0.0027 µM. For `NC1=N[C@@H](CCc2cc(Cl)cc(Cl)c2)CO1` [Example 138, (S)-4-[2-(3,5-Dichloro-phenyl)-ethyl]-4,5-dihydro-oxazol-2-ylamine], the Ki was 0.0012 µM. For `NC1=N[C@@H](c2cccc(C(F)(F)F)c2)CO1` [Example 153, (S)-4-(3-Trifluoromethyl-phenyl)-4,5-dihydro-oxazol-2-ylamine], the Ki was 0.0083 µM. `CC[C@H](C[C@H]1COC(N)=N1)c1ccccc1` [Example 293, (S)-4-((R)-2-Phenyl-butyl)-4,5-dihydro-oxazol-2-ylamine] gave a Ki of 0.0062 µM. Molecule `NC1=N[C@@H](CCc2ccc(Cl)cc2F)CO1` [Example 132, (S)-4-[2-(4-Chloro-2-fluoro-phenyl)-ethyl]-4,5-dihydro-oxazol-2-ylamine] has a Ki of 0.0007 µM. Work on `NC1=N[C@@H](CCc2ccc(Cl)c(C(F)(F)F)c2)CO1` [Example 144, (S)-4-[2-(4-Chloro-3-trifluoromethyl-phenyl)-ethyl]-4,5-dihydro-oxazol-2-ylamine] yielded a Ki of 0.0012 µM. For `NC1=N[C@H](CCc2ccc(Cl)c(Cl)c2)CO1` [Example 124, (R)-4-[2-(3,4-Dichloro-phenyl)-ethyl]-4,5-dihydro-oxazol-2-ylamine], the Ki was 0.0044 µM. Molecule `NC1=N[C@@H](COc2ccc(F)cc2)CO1` [Example 213, (S)-4-(4-Fluoro-phenoxymethyl)-4,5-dihydro-oxazol-2-ylamine] has a Ki of 0.003 µM. `NC1=N[C@@H](COc2ccc(Cl)cc2)CO1` [Example 216, (S)-4-(4-Chloro-phenoxymethyl)-4,5-dihydro-oxazol-2-ylamine] gave a Ki of 0.002 µM. Work on `CC1(c2ccc(F)c(F)c2F)COC(N)=N1` (racemic) [Example 269, (RS)-4-Methyl-4-(2,3,4-trifluoro-phenyl)-4,5-dihydro-oxazol-2-ylamine] yielded a Ki of 0.0083 µM. Work on `NC1=N[C@@H](c2cc(F)c(F)cc2F)CO1` [Example 107, (S)-4-(2,4,5-Trifluoro-phenyl)-4,5-dihydro-oxazol-2-ylamine] yielded a Ki of 0.004 µM. Molecule `Cc1ccc(CC[C@H]2COC(N)=N2)cc1` [Example 116, (S)-4-(2-p-Tolyl-ethyl)-4,5-dihydro-oxazol-2-ylamine] has a Ki of 0.0012 µM. Molecule `NC1=N[C@@H](CCc2ccccc2)CO1` [Example 80 (S), (S)-4-Phenethyl-4,5-dihydro-oxazol-2-ylamine] has a Ki of 0.0008 µM. With `NC1=N[C@@H](c2cccc(Cl)c2Cl)CO1` [Example 168, (S)-4-(2,3-Dichloro-phenyl)-4,5-dihydro-oxazol-2-ylamine] the Ki was 0.0006 µM. `NC1=N[C@@H](c2cc(Cl)ccc2C(F)(F)F)CO1` [Example 341, (+)-(S)-4-(5-Chloro-2-trifluoromethyl-phenyl)-4,5-dihydro-oxazol-2-ylamine] gave a Ki of 0.0046 µM. `NC1=N[C@@H](CSc2ccccc2)CO1` [Example 195, (R)-4-Phenylsulfanylmethyl-4,5-dihydro-oxazol-2-ylamine] showed a Ki of 0.0018 µM. In the case of `NC1=N[C@@H](c2ccc(Br)cc2C(F)(F)F)CO1` [Example 338, (+)-(S)-4-(4-Bromo-2-trifluoromethyl-phenyl)-4,5-dihydro-oxazol-2-ylamine], the Ki is reported as 0.0031 µM. With `NC1=NC(CCC2CCCCC2)CO1` (stereo in doubt) [Example 332, (S)-4-(2-Cyclohexyl-ethyl)-4,5-dihydro-oxazol-2-ylamine] the Ki was 0.0061 µM. In the case of `NC1=N[C@@H](CCc2cccc(C(F)(F)F)c2)CO1` [Example 120, (S)-4-[2-(3-Trifluoromethyl-phenyl)-ethyl]-4,5-dihydro-oxazol-2-ylamine], the Ki is reported as 0.0014 µM. In the case of `C[C@]1(c2ccc(Cl)c(Cl)c2)COC(N)=N1` [Example 135, (S)-4-(3,4-Dichloro-phenyl)-4-methyl-4,5-dihydro-oxazol-2-ylamine], the Ki is reported as 0.0009 µM. With `NC1=N[C@@H](CC2(c3ccc(Cl)cc3)CC2)CO1` [Example 257, (S)-4-[1-(4-Chloro-phenyl)-cyclopropylmethyl]-4,5-dihydro-oxazol-2-ylamine] the Ki was 0.0074 µM. In the case of `C[C@]1(c2cc(F)c(Cl)cc2F)COC(N)=N1` [Example 289, (S)-4-(4-Chloro-2,5-difluoro-phenyl)-4-methyl-4,5-dihydro-oxazol-2-ylamine], the Ki is reported as 0.0017 µM. In the case of `Cc1cc(C2(C)COC(N)=N2)c(F)cc1Cl` (racemic) [Example 274, (RS)-4-(4-Chloro-2-fluoro-5-methyl-phenyl)-4-methyl-4,5-dihydro-oxazol-2-ylamine], the Ki is reported as 0.0011 µM.
